Read-outs that look alike come from different tables or passages of the source. Marks after values point to notes of the source that are not given here.
Tests used:
[1] = tested on: Preadipocytes (PromoCell); assay: alamar blue cell viability assay (adipocytolytic potential), preadipocytes; format: cell-based; details: for Viability Preadipocytes (%): 48h incubation, vehicle = 100%; for IC50: viability, 48 hrs, read-out: IC50 [µM] Pre-ad ipocytes
Description: (§1) The following experimental setup was used for determination of adipocytolytic potential of test compounds with preadipocytes and mature adipocytes: • Preadipocytes (PromoCell) were seeded in Preadipocyte Growth Medium at 45000 cells/ cm^2 to allow attachment overnight. Cells were cultured at 37°C and 5% CO2 untill postconfluence. Differentiation was started with incubation of cells in Differentiation Medium for 7 days followed by incubation in Nutrition medium for 14 further days. After differentiation process, mature adipocytes were incubated with indicated concentration of indicated triterpenes.
(§2) 6 replicates of each test compound concentration were tested. Each plate included a negative control and a compound interference control (for all concentrations, duplicates).
(§3) Cell viability as surrogate for adipocytolytic potential of compounds were analysed by alamar blue assay. In brief, 20µl of a 0,1mg/ml Resazurin sodium salt (Sigma; R7017-1G) solution was added to each well 48 hrs after compound incubation. The cells were incubated for 90 min at 37°C and 5% CO2 and the resulting conversion of resazurin to resorufin was measured by a fluorescence plate reader at 590 nm. Vehicle controls were set as 100%. IC50-values were analysed using SigmaBlotV13.

[2] = tested on: in vitro matured adipocytes; assay: alamar blue cell viability assay (adipocytolytic potential), mature adipocytes; format: cell-based; details: for Viability Adipocytes (%): 48h incubation, vehicle = 100%
Description: as §1, §2, §3

inguinal fat pad [3] = assay: injection into inguinal fat pads of rats: fat pad weight, volume, fat content; format: in vivo, Male Sprague-Dawley rats; details: 3 sites 100 µl each, days 1, 7, 14, analysis day 35, mean ±SEM
Description: All work was done under sterile extractor hood/luminar airflow working environment. Final solution were filtered through sterile 0.22um Millipore PES membrane syringer filter unit. […].
To 0.4099g Na3PO4 water for injection was added to a final weight of 50 g.
For the highest (2%) concentration, 100 mg of obeticholic acid were added with 2.75 ml of above solution, 112,5 mg of glycerol and finally 2.038 ml of sterile water to make 5 ml solution. Lower concentrations were adjusted accordingly.
Male Sprague-Dawley rats (200-300g of body weight) were used for this study (Vital River Laboratories Animal Ltd., China) and were housed in a temperature (22 ± 3 °C) and humidity (55 ± 15 %) controlled AAALAC accredited facility. Animals were provided with food (Keaoxieli certified Rodent Diet) and sterile water ad libitum. The animals were on a 12-hour light/dark (6:00 am /6:00 pm) cycle and acclimated for 1 week prior to the study. Rats were housed in a plexiglas cage (3 rats per cage).
(§4) After shaving the skin the inguinal area, rats, were injected into the inguinal fat pads (3 injection sites per fat pad for every rat, 100ul/per site). For all groups, 6 rats were injected with sterile vehicle, or obeticholic acid on day 1, day 7 and day 14 in the right pad and left fat pad was intact. For the other 6 rats were injected with sterile vehicle obeticholic acid on day 1, day 7 and day 14 in the left pad and right pad was intact.
Isolated inguinal fat pad volume was measured using YLS - 7 b digit volume measuring instrument (Jinan YiYan Technology Development co., LTD, Shandong, P.R. China) according to manufacturer instructions.
Rats were euthanized and the abdomen was cut and opened. Inguinal fat pads were exposed and a photo was taken. Then inguinal fat pads were isolated, and a gross photo was taken again followed by weighting of the pad. Total fat lipids were extracted from the inguinal fat using a protocol adapted from Folch et al. Fresh fat tissue (1g) was homogenized in 20ml of a 2:1 chloroform-methanol solution. The homogenate was filtered using a fat-free filter paper and funneled into a pre-weighted 50-ml glass vial. Then the previous vial and funnel were washed with an additional 5ml of a 2:1 chloroform-methanol solution. Afterwards 2.5 ml of 0.9% NaCl was added. The lipids were separated by centrifugation at 1,800 g, 10°C for 5 min; the aqueous layer was discarded and the tube was flushed with nitrogen until the lipid pellet was dry. The tube containing the lipid pellet was reweighed, and total lipid extracted per gram of total tissue was calculated.
Results were expressed as mean ± SEM. Statistical analysis was performed using ANOVA on ranks, followed if significant by Mann-Whitney test. The difference was considered significant when p< 0.05.
. Herein, the values representmean ±SEM. *-P<0.05 vs control. Table 5 Effect of obeticholic acid on inguinal fat pad in rats.

adipocytes = assay: Caspase-Glo 3/7 Assay, apoptosis induction in adipocytes; format: cell-based; details: vehicle basal apoptosis = 100%
Description: as §1
For analysing the potential of compounds to induce apoptosis the Caspase-Glo® 3/7 Assay was used (Promega) as recommended by the supplier. In brief, 100µl of Caspase Reagent was added to 100µl cell culture medium and cells were incubated at 37°C and 5% CO2 for 1 hr. Luminescence signal was measured with a SynergyH4 plate reader. Vehicle controls were used to define basal apoptosis as 100%. Table 1 Impact on viability of in vitro matured adipocytes after 48h incubation with indicated compound in increasing concentration

inguinal fat pad [4] = assay: fat histology analysis of injected inguinal fat pads (H&E); format: in vivo, Male Sprague-Dawley rats
Description: as §4
Inguinal fat embedded in paraffin were cross-sectioned (5 µm each). For each mouse, a serial section at intervals of 40 to 50 µm was made and one section was collected for every 10 sections. In total, five sections per animal were used for Hematoxylin and eosin (H&E) stain and adipocyte number and size analysis. Histologic examination was performed by well-trained pathologists in a double-blind fashion. Three factors were examined in each sample: the quantity of normal fat, fat necrosis and inflammatory activity. […]. H&E staining was used in evaluation of the inflammatory status.

[5] = Adipocyte, viability, 48 hrs, read-out: IC50 [µM] Adipocytes
[6] = 48 h, read-out: Viability Preadipocytes (%)

C[C@H](CCC(=O)O)[C@H]1CC[C@H]2[C@@H]3CC[C@@H]4C[C@H](O)CC[C@]4(C)[C@H]3C[C@H](O)[C@]12C [Deoxycholic acid]
Viability Preadipocytes (%) ([1]; 10 µM): 96.22%
Viability Preadipocytes (%) ([1]; 50 µM): 95.61%
Viability Preadipocytes (%) ([1]; 100 µM): 98.03%
Viability Preadipocytes (%) ([1]; 300 µM): 26.08%
Viability Preadipocytes (%) ([1]; 600 µM): 0.00%
IC50 [1]: 232 µM
Viability Adipocytes (%) ([2]; 10 µM): 106.98%
Viability Adipocytes (%) ([2]; 50 µM): 95.61%
Viability Adipocytes (%) ([2]; 100 µM): 94.30%
Viability Adipocytes (%) ([2]; 300 µM): 22.06%
Viability Adipocytes (%) ([2]; 600 µM): 0.11%
IC50 ([2]; Adipocyte, read-out: concentration required to achieve 50%-decrease in vitality of adipocytes): 200 µM
IC50 [2, 5]: 244 µM

CC[C@H]1[C@@H](O)[C@@H]2[C@H](CC[C@]3(C)[C@@H]([C@H](C)CCC(=O)O)CC[C@@H]23)[C@@]2(C)CC[C@@H](O)C[C@@H]12 [Obeticholic acid, (3α,5β,6α,7α)-6-ethyl-3,7-dihydroxycholan-24-oic acid]
Inguinal fat pad fat content difference to contralateral (sham) pad (g) N=8 (inguinal fat pad [3]; 0.5 % solution): -0.169±0.02* g
Inguinal fat pad weight difference to contralateral (sham) pad (g) N=12 (inguinal fat pad [3]; 0.5 % solution): -0.192±0.04* g
Inguinal fat pad fat content difference to contralateral (sham) pad (g) N=8 (inguinal fat pad [3]; 1 % solution): -0.387±0.04* g
Inguinal fat pad weight difference to contralateral (sham) pad (g) N=12 (inguinal fat pad [3]; 1 % solution): -0.352±0.03* g
Inguinal fat pad fat content difference to contralateral (sham) pad (g) N=8 (inguinal fat pad [3]; 2 % solution): -0.523±0.05* g
Inguinal fat pad weight difference to contralateral (sham) pad (g) N=12 (inguinal fat pad [3]; 2 % solution): -0.526±0.07* g
Apoptosis Adipocytes (%) (adipocytes; 50 µM, 6 hrs): 132.28%
Apoptosis Adipocytes (%) (adipocytes; 50 µM, 24 hrs): 146.44%
Apoptosis Adipocytes (%) (adipocytes; 100 µM, 6 hrs): 503.28%
Apoptosis Adipocytes (%) (adipocytes; 100 µM, 24 hrs): 180.88%
Apoptosis Adipocytes (%) (adipocytes; 300 µM, 6 hrs): 1164.30%
Apoptosis Adipocytes (%) (adipocytes; 300 µM, 24 hrs): 779.64%
viability at 10 µM [1, 6]: 93%
viability at 50 µM [1, 6]: 83.1%
viability at 100 µM [1, 6]: 21.4%
viability at 300 µM [1, 6]: 0.41%
IC50 [1]: 87.2 µM
Viability Adipocytes (%) ([2]; 100 µM): 49.17%
viability at 10 µM ([2]; Adipocyte, 48 h, read-out: Viability Adipocytes (%), 10 µM, 48h incubation, vehicle = 100%): 101%
viability at 50 µM ([2]; Adipocyte, 48 h, read-out: Viability Adipocytes (%), 50 µM, 48h incubation, vehicle = 100%): 89.6%
viability at 100 µM ([2]; Adipocyte, 48 h, read-out: Viability Adipocytes (%), 100 µM, 48h incubation, vehicle = 100%): ~50%
viability at 300 µM ([2]; Adipocyte, 48 h, read-out: Viability Adipocytes (%), 300 µM, 48h incubation, vehicle = 100%): 0.29%
IC50 [2, 5]: 93.9 µM
inflammation (histology) (inguinal fat pad [4]; 0.5 % solution injected into inguinal fat pad): not
fat necrosis as measured by histology (inguinal fat pad [4]; 0.5, 1 and 2 % solutions): not affected
normal fat content as measured by histology (inguinal fat pad [4]; 0.5, 1 and 2 % solutions): not affected
inflammation (histology) (inguinal fat pad [4]; 1 % solution injected into inguinal fat pad): not
inflammation (histology) (inguinal fat pad [4]; 2 % solution injected into inguinal fat pad): increase in inflammation
